The text below walks through data of US20120077677A1, “Use of 4-phenylbutyric acid and/or salts thereof for enhancing stress tolerance in plants” (BAYER CROPSCIENCE AG, priority 2010, published 2012).

SMILES strings stand for the structures.

One assay has as its system BRSNS (Brassica napus). Briefly: Drought stress test on potted crop plants, spray application, Brassica napus. It counts as in vivo. How it is done:
Seeds of monocotyledonous and dicotyledonous crop plants are placed in sandy loam in wood-fiber pots, covered with soil and cultivated in a greenhouse under good growth conditions. The test plants were treated at the early leaf stage (BBCH10-BBCH13). To ensure uniform water supply before commencement of stress, the potted plants were supplied with the maximum amount of water immediately beforehand by dam irrigation and, after application, transferred in plastic inserts in order to prevent subsequent, excessively rapid drying. The inventive compounds, formulated in the form of wettable powders (WP), wettable granules (WG), suspension concentrates (SC) or emulsion concentrates (EC), were sprayed onto the green parts of the plants as an aqueous suspension at an equivalent water application rate of 600 l/ha with addition of 0.2% wetting agent (agrotin). Substance application was followed immediately by stress treatment of the plants (cold or drought stress). For cold stress treatment, the plants were kept under the following controlled conditions: • “day”: 12 hours with illumination at 8° C. • “night”: 12 hours without illumination at 1° C. Drought stress was induced by gradual drying out under the following conditions: • “day”: 14 hours with illumination at 26° C. • “night”: 10 hours without illumination at 18° C. The duration of the respective stress phases was guided mainly by the state of the untreated, stressed control plants and thus varied from crop to crop. It was ended (by re-irrigating or transfer to a greenhouse with good growth conditions) as soon as irreversible damage was observed on the untreated, stressed control plants. In the case of dicotyledonous crops, for example oilseed rape and soybeans, the duration of the drought stress phase varied between 3 and 5 days, in the case of monocotyledonous crops, for example wheat, barley or corn, between 6 and 10 days. The duration of the cold stress phase varied between 12 and 14 days. […] The intensity of damage was first assessed as a percentage (100%=plants have died, 0%=like control plants). […]

The next assay concerns ZEAMX (Zea mays). Nature of the assay: Drought stress test on potted crop plants, spray application, Zea mays. In kind it is in vivo. The settings on record: dosage 250 g/ha. The procedure:
(§1) Seeds of monocotyledonous and dicotyledonous crop plants are placed in sandy loam in wood-fiber pots, covered with soil and cultivated in a greenhouse under good growth conditions. The test plants were treated at the early leaf stage (BBCH10-BBCH13). To ensure uniform water supply before commencement of stress, the potted plants were supplied with the maximum amount of water immediately beforehand by dam irrigation and, after application, transferred in plastic inserts in order to prevent subsequent, excessively rapid drying. The inventive compounds, formulated in the form of wettable powders (WP), wettable granules (WG), suspension concentrates (SC) or emulsion concentrates (EC), were sprayed onto the green parts of the plants as an aqueous suspension at an equivalent water application rate of 600 l/ha with addition of 0.2% wetting agent (agrotin). Substance application was followed immediately by stress treatment of the plants (cold or drought stress). For cold stress treatment, the plants were kept under the following controlled conditions: • “day”: 12 hours with illumination at 8° C. • “night”: 12 hours without illumination at 1° C. […] The intensity of damage was first assessed as a percentage (100%=plants have died, 0%=like control plants). […]

Another assay has as its system cotton. The following applies: cited from earlier work.
For assay [1], the system named is TRZAS (Triticum aestivum). Nature of the assay: Drought stress test on potted crop plants, spray application, Triticum aestivum. In kind it is in vivo. The following applies: dosage 25 g/ha. The procedure:
as §1

With `O=C(O)CCCc1ccccc1` [4-phenylbutyric acid], in the assay with BRSNS (Brassica napus) (dosage 25 g/ha), the “EF (BRSNS), efficacy = percentage reduction in the intensity of damage” value is above 5%. The “EF (ZEAMX), efficacy = percentage reduction in the intensity of damage” value in the assay with ZEAMX (Zea mays) is on record as above 5%.

Consider `O=C([O-])CCCc1ccccc1.[Na+]` [Compound I-2, Sodium 4-phenylbutyrate], for which the plant growth entry with cotton (application to cottonseeds, hence oil content of the harvested material) is reported as “increases”. In the assay on cotton (cotton, seed dressing), the “translocation of mono- and disaccharides” value is “positively influenced”. In the assay with cotton (cottonseed dressing, early growth stages, also enhances the yields), the “protein content of the leaves” value was “increases”. Moreover, the “flower formation and the maturing of cotton plants” value with cotton (cottonseed dressing, hence enhances the yields) is “enhances”. For the same compound, the “EF (BRSNS), efficacy = percentage reduction in the intensity of damage” value in the assay with BRSNS (Brassica napus) (dosage 250 g/ha) is given as above 5%.

Consider `O=C(O)CCCc1ccccc1.OCCN(CCO)CCO` [Compound I-22, Tris-N,N,N-(2-hydroxy-1-yl)ammonium 4-phenylbutyrate], for which the “EF (BRSNS), efficacy = percentage reduction in the intensity of damage” value in the assay with BRSNS (Brassica napus) (dosage 25 g/ha) was above 5%. For the same compound, in assay [1], the “EF (TRZAS), efficacy = percentage reduction in the intensity of damage” value is above 5%.
